Target: recombinant human NK3 receptor (Homo sapiens (Human), UniProt P29371)
Assay: biochemical
Type: binding
Details: [3H]SR142801, membranes of HEK293 cells transiently expressing recombinant human NK3 receptor; read-out: Data Ki (hNK-3 receptor affinity)

recombinant human NK3 receptor, sequence (P29371 whole entry): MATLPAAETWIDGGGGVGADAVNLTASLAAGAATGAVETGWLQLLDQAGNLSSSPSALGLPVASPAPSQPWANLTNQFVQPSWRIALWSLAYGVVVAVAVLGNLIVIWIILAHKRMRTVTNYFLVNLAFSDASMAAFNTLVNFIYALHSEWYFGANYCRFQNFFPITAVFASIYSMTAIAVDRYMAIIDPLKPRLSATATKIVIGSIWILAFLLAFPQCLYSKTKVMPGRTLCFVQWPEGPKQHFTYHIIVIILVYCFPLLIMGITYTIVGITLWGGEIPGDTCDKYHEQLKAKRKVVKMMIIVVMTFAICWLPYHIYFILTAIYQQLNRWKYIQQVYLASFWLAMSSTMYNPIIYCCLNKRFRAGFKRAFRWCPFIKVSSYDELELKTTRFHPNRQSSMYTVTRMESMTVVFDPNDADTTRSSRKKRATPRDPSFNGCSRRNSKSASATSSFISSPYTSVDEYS

Q: CCN(C(=O)Oc1ccc(F)cc1)[C@@H]1CN(C(=O)C2CCN(C(=O)c3ccc(C(F)(F)F)cn3)CC2)C[C@H]1c1ccc(Cl)c(F)c1 [Example 74, {(3S,4R)-4-(4-Chloro-3-fluoro-phenyl)-1-[1-(5-trifluoromethyl-pyridine-2-carbonyl)-piperidine-4-carbonyl]-pyrrolidin-3-yl}-ethyl-carbamic acid 4-fluoro-phenyl ester] was tested. Which Ki did it give?
A: The Ki was 12 nM.

Q: For CCN(C(=O)Oc1ccc(F)cc1)[C@@H]1CN(C(=O)C2CCN(C(=O)c3ccc(F)cn3)CC2)C[C@H]1c1ccc(Cl)c(F)c1 [Example 75, {(3S,4R)-4-(4-Chloro-3-fluoro-phenyl)-1-[1-(5-fluoro-pyridine-2-carbonyl)-piperidine-4-carbonyl]-pyrrolidin-3-yl}-ethyl-carbamic acid 4-fluoro-phenyl ester], which Ki is on record?
A: Its Ki is 3 nM.

Q: How did the Ki turn out when CCN(C(=O)Oc1ccc(F)cc1)[C@@H]1CN(C(=O)C2CCN(C(=O)c3ccc(C#N)cc3)CC2)C[C@H]1c1ccc(Cl)c(F)c1 [Example 76, {(3S,4R)-4-(4-Chloro-3-fluoro-phenyl)-1-[1-(4-cyano-benzoyl)-piperidine-4-carbonyl]-pyrrolidin-3-yl}-ethyl-carbamic acid 4-fluoro-phenyl ester] was run?
A: Its Ki is 17 nM.

Q: How did the Ki turn out when CCN(C(=O)Oc1ccc(F)cc1)[C@@H]1CN(C(=O)C2CCN(C(=O)c3cnc(C(F)(F)F)cn3)CC2)C[C@H]1c1ccc(Cl)c(F)c1 [Example 78, {(3S,4R)-4-(4-Chloro-3-fluoro-phenyl)-1-[1-(5-trifluoromethyl-pyrazine-2-carbonyl)-piperidine-4-carbonyl]-pyrrolidin-3-yl}-ethyl-carbamic acid 4-fluoro-phenyl ester] was run?
A: The Ki was 5 nM.

Q: CCN(C(=O)Oc1ccc(F)cc1)[C@@H]1CN(C(=O)C2CCN(C(=O)c3ccc(C#N)nc3)CC2)C[C@H]1c1ccc(Cl)c(F)c1 [Example 79, {(3S,4R)-4-(4-Chloro-3-fluoro-phenyl)-1-[1-(6-cyano-pyridine-3-carbonyl)-piperidine-4-carbonyl]-pyrrolidin-3-yl}-ethyl-carbamic acid 4-fluoro-phenyl ester] was tested. Which Ki did it give?
A: The Ki was 8 nM.

Q: Which Ki does the source give for CCN(C(=O)Oc1ccc(F)cc1)[C@@H]1CN(C(=O)C2CCN(C(C)=O)CC2)C[C@H]1c1ccc(Cl)c(F)c1 [Example 80, [(3S,4R)-1-(1-Acetyl-piperidine-4-carbonyl)-4-(4-chloro-3-fluoro-phenyl)-pyrrolidin-3-yl]-ethyl-carbamic acid 4-fluoro-phenyl ester] here?
A: The Ki was 2 nM.

Q: CCN(C(=O)Oc1ccc(F)cc1)[C@@H]1CN(C(=O)C2CCN(S(C)(=O)=O)CC2)C[C@H]1c1ccc(Cl)c(F)c1 [Example 81, [(3S,4R)-4-(4-Chloro-3-fluoro-phenyl)-1-(1-methanesulfonyl-piperidine-4-carbonyl)-pyrrolidin-3-yl]-ethyl-carbamic acid 4-fluoro-phenyl ester] was tested. Which Ki did it give?
A: Its Ki is 29 nM.

Q: With CCN(C(=O)Oc1ccc(F)cc1)[C@@H]1CN(C(=O)C2CCN(C(C)=O)CC2)C[C@H]1c1ccc(Cl)cc1 [Example 82, [(3S,4R)-1-(1-Acetyl-piperidine-4-carbonyl)-4-(4-chloro-phenyl)-pyrrolidin-3-yl]-ethyl-carbamic acid 4-fluoro-phenyl ester] as the compound, how does the Ki read?
A: Its Ki is 8.2 nM.

Q: Which Ki does the source give for CCN(C(=O)Oc1ccc(F)cc1)[C@@H]1CN(C(=O)C2CCN(c3ccc(C(C)(C)O)cn3)CC2)C[C@H]1c1ccc(Cl)c(F)c1 [Example 83, {(3S,4R)-4-(4-Chloro-3-fluoro-phenyl)-1-[5′-(1-hydroxy-1-methyl-ethyl)-3,4,5,6-tetrahydro-2H-[1,2′]bipyridinyl-4-carbonyl]-pyrrolidin-3-yl}-ethyl-carbamic acid 4-fluoro-phenyl ester] here?
A: Its Ki is 3.8 nM.

Q: Which Ki does the source give for CCN(C(=O)Oc1ccccc1F)[C@@H]1CN(C(=O)C2CCN(C(=O)C3(C)COC3)CC2)C[C@H]1c1ccc(Cl)cc1 [Example 84, {(3S,4R)-4-(4-Chloro-phenyl)-1-[1-(3-methyl-oxetane-3-carbonyl)-piperidine-4-carbonyl]-pyrrolidin-3-yl}-ethyl-carbamic acid 2-fluoro-phenyl ester] here?
A: The Ki was 29.8 nM.

Q: With CCN(C(=O)Oc1ccccc1F)[C@@H]1CN(C(=O)C2CCN(C(=O)C3(C#N)CC3)CC2)C[C@H]1c1ccc(Cl)cc1 [Example 85, {(3S,4R)-4-(4-Chloro-phenyl)-1-[1-(1-cyano-cyclopropanecarbonyl)-piperidine-4-carbonyl]-pyrrolidin-3-yl}-ethyl-carbamic acid 2-fluoro-phenyl ester] as the compound, how does the Ki read?
A: Its Ki is 23.3 nM.

Q: How did the Ki turn out when CCN(C(=O)Oc1ccc(F)cc1)[C@@H]1CN(C(=O)C2CCN(C(=O)C3CCC3)CC2)C[C@H]1c1ccc(Cl)cc1 [Example 87, [(3S,4R)-4-(4-Chloro-phenyl)-1-(1-cyclobutanecarbonyl-piperidine-4-carbonyl)-pyrrolidin-3-yl]-ethyl-carbamic acid 4-fluoro-phenyl ester] was run?
A: Its Ki is 2.1 nM.

Q: For CCN(C(=O)Oc1ccc(F)cc1)[C@@H]1CN(C(=O)C2CCN(C(=O)C3(C)COC3)CC2)C[C@H]1c1ccc(Cl)cc1 [Example 88, {(3S,4R)-4-(4-Chloro-phenyl)-1-[1-(3-methyl-oxetane-3-carbonyl)-piperidine-4-carbonyl]-pyrrolidin-3-yl}-ethyl-carbamic acid 4-fluoro-phenyl ester], which Ki is on record?
A: The Ki was 5.6 nM.

Q: Which Ki does the source give for CCN(C(=O)Oc1ccc(F)cc1)[C@@H]1CN(C(=O)C2CCN(C(=O)C3CC(F)(F)C3)CC2)C[C@H]1c1ccc(Cl)cc1 [Example 90, {(3S,4R)-4-(4-Chloro-phenyl)-1-[1-(3,3-difluoro-cyclobutanecarbonyl)-piperidine-4-carbonyl]-pyrrolidin-3-yl}-ethyl-carbamic acid 4-fluoro-phenyl ester] here?
A: Its Ki is 2.4 nM.

Q: CCN(C(=O)Oc1ccc(F)cc1)[C@@H]1CN(C(=O)C2CCN(C(=O)C3CC(OC)C3)CC2)C[C@H]1c1ccc(Cl)cc1 (stereo partly drawn) [Example 91, {(3S,4R)-4-(4-Chloro-phenyl)-1-[1-(3-methoxy-cyclobutanecarbonyl)-piperidine-4-carbonyl]-pyrrolidin-3-yl}-ethyl-carbamic acid 4-fluoro-phenyl ester] was tested. Which Ki did it give?
A: Its Ki is 6.5 nM.

Q: How did the Ki turn out when CCN(C(=O)Oc1ccc(F)cc1)[C@@H]1CN(C(=O)C2CCN(C(=O)C3(C(F)(F)F)CCC3)CC2)C[C@H]1c1ccc(Cl)cc1 [Example 92, {(3S,4R)-4-(4-Chloro-phenyl)-1-[1-(1-trifluoromethyl-cyclobutanecarbonyl)-piperidine-4-carbonyl]-pyrrolidin-3-yl}-ethyl-carbamic acid 4-fluoro-phenyl ester] was run?
A: Its Ki is 6.6 nM.

Q: How did the Ki turn out when CCN(C(=O)Oc1ccc(F)cc1)[C@@H]1CN(C(=O)C2CCN(C(=O)CC#N)CC2)C[C@H]1c1ccc(Cl)cc1 [Example 93, {(3S,4R)-4-(4-Chloro-phenyl)-1-[1-(2-cyano-acetyl)-piperidine-4-carbonyl]-pyrrolidin-3-yl}-ethyl-carbamic acid 4-fluoro-phenyl ester] was run?
A: Its Ki is 7.1 nM.

Q: For CCN(C(=O)Oc1ccc(F)cc1)[C@@H]1CN(C(=O)C2CCN(C(=O)C3(C#N)CC3)CC2)C[C@H]1c1ccc(Cl)cc1 [Example 94, {(3S,4R)-4-(4-Chloro-phenyl)-1-[1-(1-cyano-cyclopropanecarbonyl)-piperidine-4-carbonyl]-pyrrolidin-3-yl}-ethyl-carbamic acid 4-fluoro-phenyl ester], which Ki is on record?
A: Its Ki is 7.8 nM.

Q: How did the Ki turn out when CCN(C(=O)Oc1ccc(F)cc1)[C@@H]1CN(C(=O)C2CCN(C(=O)C3(C(F)(F)F)CC3)CC2)C[C@H]1c1ccc(Cl)cc1 [Example 95, {(3S,4R)-4-(4-Chloro-phenyl)-1-[1-(1-trifluoromethyl-cyclopropanecarbonyl)-piperidine-4-carbonyl]-pyrrolidin-3-yl}-ethyl-carbamic acid 4-fluoro-phenyl ester] was run?
A: The Ki was 6.1 nM.

Q: How did the Ki turn out when CCN(C(=O)Oc1ccc(F)cc1)[C@@H]1CN(C(=O)C2CCN(C(=O)C3CC3(F)F)CC2)C[C@H]1c1ccc(Cl)cc1 (stereo partly drawn) [Example 96, {(3S,4R)-4-(4-Chloro-phenyl)-1-[1-(2,2-difluoro-cyclopropanecarbonyl)-piperidine-4-carbonyl]-pyrrolidin-3-yl}-ethyl-carbamic acid 4-fluoro-phenyl ester] was run?
A: The Ki was 3.4 nM.

Q: How did the Ki turn out when CCN(C(=O)Oc1ccc(F)cc1)[C@@H]1CN(C(=O)C2CCN(C(=O)C3CCOCC3)CC2)C[C@H]1c1ccc(Cl)cc1 [Example 97, {(3S,4R)-4-(4-Chloro-phenyl)-1-[1-(tetrahydro-pyran-4-carbonyl)-piperidine-4-carbonyl]-pyrrolidin-3-yl}-ethyl-carbamic acid 4-fluoro-phenyl ester] was run?
A: Its Ki is 4.4 nM.

Q: CCN(C(=O)Oc1ccc(F)cc1)[C@@H]1CN(C(=O)C2CCN(C(=O)C3CCOC(C)(C)C3)CC2)C[C@H]1c1ccc(Cl)cc1 (stereo partly drawn) [Example 98, {(3S,4R)-4-(4-Chloro-phenyl)-1-[1-(2,2-dimethyl-tetrahydro-pyran-4-carbonyl)-piperidine-4-carbonyl]-pyrrolidin-3-yl}-ethyl-carbamic acid 4-fluoro-phenyl ester] was tested. Which Ki did it give?
A: The Ki was 4.7 nM.

Same assay, conditions: read-out: Data Ki (hNK-3 receptor affinity)

Q: For CCN(C(=O)Oc1ccc(F)cc1)[C@@H]1CN(C(=O)C2CCN(C(=O)c3ccc(F)cc3)CC2)C[C@H]1c1ccc(Cl)c(F)c1 [Example 77, {(3S,4R)-4-(4-Chloro-3-fluoro-phenyl)-1-[1-(4-fluoro-benzoyl)-piperidine-4-carbonyl]-pyrrolidin-3-yl}-ethyl-carbamic acid 4-fluoro-phenyl ester], which Ki is on record?
A: Its Ki is 4 nM.

Q: How did the Ki turn out when CCN(C(=O)Oc1ccccc1F)[C@@H]1CN(C(=O)C2CCN(C(=O)c3ccc(C(F)(F)F)cn3)CC2)C[C@H]1c1ccc(Cl)cc1 [Example 86, {(3S,4R)-4-(4-Chloro-phenyl)-1-[1-(5-trifluoromethyl-pyridine-2-carbonyl)-piperidine-4-carbonyl]-pyrrolidin-3-yl}-ethyl-carbamic acid 2-fluoro-phenyl ester] was run?
A: Its Ki is 70.7 nM.

Q: Which Ki does the source give for CCN(C(=O)Oc1ccc(F)cc1)[C@@H]1CN(C(=O)C2CCN(C(=O)C3CC(F)C3)CC2)C[C@H]1c1ccc(Cl)cc1 (stereo partly drawn) [Example 89, {(3S,4R)-4-(4-Chloro-phenyl)-1-[1-(3-fluoro-cyclobutanecarbonyl)-piperidine-4-carbonyl]-pyrrolidin-3-yl}-ethyl-carbamic acid 4-fluoro-phenyl ester] here?
A: Its Ki is 3.3 nM.

Source: patent publication US9346786B2, “Pyrrolidine compounds” (Hoffmann-La Roche Inc., priority 2009, dated 2016)
